# Measurements reported in patent US20120220482A1, “COMPOSITIONS AND METHODS FOR SCREENING PEPTOID LIBRARIES” (The Board of Regents of the University of Texas System, priority 2011, published 2012).
# Square brackets hold non-standard residues; d marks the D form. Peptide text beside a SMILES is read from it. * marks the point of attachment. N(4-Sulfamoylphenethyl)Gly = NS(=O)(=O)c1ccc(CCNCC(=O)O)cc1; Gly(N-piperonyl) = O=C(O)CNCc1ccc2c(c1)OCO2; hSer(lactone) = O=C1OCC[C@@H]1N*; NFurfurylGly = O=C(O)CNCc1ccco1; NAllylGly = C=CCNCC(=O)O
# Molecular target: M2 monoclonal anti-flag antibody
# Experiment: Microarray binding of spotted hits titrated with anti-FLAG antibody
# Design: species or system mouse
# Details: apparent KD from microarray binding curves with decreasing anti-FLAG antibody concentrations; NA = spot not bound by anti-FLAG antibody
# Protocol: (§1) A total of 16 copies of each array of 100 compounds (the hits and various controls) were spotted onto each microscope slide. Each array, isolated by applying a Whatman Fast Frame to the slide, was then incubated for 2 hr with either anti-Myc antibody or various concentrations of anti-FLAG antibody. After washing, the amount of antibody captured at each spot was quantified by subsequent hybridization with fluorescently labeled secondary antibody, another wash, drying, and scanning. […] No binding of the anti-FLAG antibody to the Myc peptide was observed, nor was binding of the anti-Myc antibody to any of the hits or the FLAG peptide.
# Microarray Spotting, Hybridization, and Data Analysis. Contents of the 384-well plates were printed onto maleimide-coated glass slides with a NanoPrint LM 360 (TeleChem International Inc., Sunnyvale, Calif.) with MP946 Micro Spotting Pins. A 10% ethanol (EM-AX007309; Midwest Grain Products) and water mixture was used to wash the pins before printing and after spotting of each compound. Multiple wash/sonicate/dry cycles were used between each sample pick-up and print cycle. Spots were printed on the slide to fit within the wells of a 16-well Whatman Fast Frame (Whatman no. 10486003), which allows 16 isolated hybridization events on a single slide. Slides were left in 50% humidity for 12 hr […]. After printing, the humidifier was turned off and the slides were left for at least 12 hr before free maleimide groups were blocked with 2% β-mercaptoethanol in DMF for 1 hr by placing the slides in glass slide holders inside of glass containers on a shaker in the chemical hood. Slides were washed sequentially with DMF for 30 min, tetrahydrofuran for 30 min, DMF for 30 min, acetonitrile thrice for 20 min, isopropanol thrice for 20 min, 13 TBST once for 20 min, then 0.13 TBST once for 20 min. Washed slides were spun dry for 5 min at 2000 rpm.
# Dry slides were placed inside the Whatman Fast Frame following the provided instructions, and each of the 16 wells per slide was blocked with 100 μl of StartingBlock (Fisher) for 1 hr at RT with a multichannel pipetteman. Wells were drained and washed once with […] TBST. TBST was drained one well at a time before adding 100 μl of appropriate concentrations of protein(s) diluted in 1:1 TBST:StartingBlock. The FastFrame was placed on wet paper towels inside of a glass cake pan, which was sealed with Glad Press'n Seal and placed on an orbital shaker for 2-4 hr at RT. Each well was washed with TBST six times before adding 4 μg/ml Alexa647 goat anti-mouse IgG secondary antibodies diluted in 1:1 TBST:StartingBlock for 1 hr at RT. Slides were washed five times for 3 min with 13 TBST, then once with 0.13 TBST, spun dry at 2000 rpm, then scanned using a GenePix Autoloader 4200AL Scanner (Molecular Devices, Sunnyvale Calif.). Slides were scanned with a power of 1003 and photomultiplier tube setting of 5003-6003. Gal files were created and used to determine fluorescence intensity of each of the spots with GenePixPro6.0. Gal files were aligned manually, then automatic spotfinding followed by manual correction of spots performed for each of the scanned slides. GPR files were created and median fluorescence-background fluorescence values for each of the spots were cut and pasted in Excel and arranged (using simple macros) to simplify transferring results to GraphPad Prism 5.0 software for binding curve analyses.
row,Compound,Kd
1,NCCCC[C@@H](N)C(=O)N[C@H](Cc1ccc(O)cc1)C(=O)N[C@H](CC(=O)O)C(=O)N[C@H](Cc1c[nH]c2ccccc12)C(=O)N[C@H](CCC(=O)O)C(=O)NCC(=O)N(CC(=O)N[C@H]1CCOC1=O)Cc1ccco1 [Spot H6] (H-[dK][dY][dD][dW][dE]G[NFurfurylGly]-{hSer(lactone)}; C-terminus assumed),11 nM
2,NCCCC[C@@H](NC(=O)[C@@H](CO)NC(=O)[C@H](N)CCC(=O)O)C(=O)N[C@H](Cc1ccc(O)cc1)C(=O)N[C@H](CC(=O)O)C(=O)N[C@H](Cc1ccc(O)cc1)C(=O)N(CC(=O)N[C@H]1CCOC1=O)Cc1ccco1 [Spot B9] (H-[dE][dS][dK][dY][dD][dY][NFurfurylGly]-{hSer(lactone)}; C-terminus assumed),2 nM
3,CC(C)C[C@@H](N)C(=O)N[C@H](CC(=O)O)C(=O)N[C@H](CCCCN)C(=O)N[C@H](Cc1ccc(O)cc1)C(=O)N[C@H](CCC(=O)O)C(=O)N[C@H](Cc1c[nH]c2ccccc12)C(=O)N(CC(=O)N[C@H]1CCOC1=O)Cc1ccco1 [Spot B7] (H-[dL][dD][dK][dY][dE][dW][NFurfurylGly]-{hSer(lactone)}; C-terminus assumed),6 nM
4,NCCCC[C@@H](N)C(=O)N[C@H](Cc1ccc(O)cc1)C(=O)N[C@H](CC(=O)O)C(=O)N(CCc1ccc(S(N)(=O)=O)cc1)CC(=O)N(CCc1ccc(S(N)(=O)=O)cc1)CC(=O)N[C@H](CC(=O)O)C(=O)N(CC(=O)N[C@H]1CCOC1=O)Cc1ccco1 [Spot H2] (H-[dK][dY][dD][N(4-Sulfamoylphenethyl)Gly][N(4-Sulfamoylphenethyl)Gly][dD][NFurfurylGly]-{hSer(lactone)}),5 nM
5,NCCCC[C@@H](N)C(=O)N[C@H](Cc1ccc(O)cc1)C(=O)N[C@H](Cc1ccc(O)cc1)C(=O)N[C@H](CCC(=O)O)C(=O)N[C@H](CC(N)=O)C(=O)N(CC(=O)N(CC(=O)N[C@H]1CCOC1=O)Cc1ccco1)Cc1ccc2c(c1)OCO2 [Spot H7] (H-[dK][dY][dY][dE][dN][Gly(N-piperonyl)][NFurfurylGly]-{hSer(lactone)}),9 nM
6,NCCCC[C@@H](N)C(=O)N[C@H](Cc1ccc(O)cc1)C(=O)N[C@H](CCC(=O)O)C(=O)N[C@H](Cc1ccc(O)cc1)C(=O)N[C@H](CCC(=O)O)C(=O)N[C@H](Cc1ccc(O)cc1)C(=O)N(CC(=O)N[C@H]1CCOC1=O)Cc1ccco1 [Spot H1] (H-[dK][dY][dE][dY][dE][dY][NFurfurylGly]-{hSer(lactone)}; C-terminus assumed),6 nM
7,C=CCN(CC(=O)N[C@H](CCC(=O)O)C(=O)N[C@H](CC(C)C)C(=O)N(CC(=O)N[C@H]1CCOC1=O)Cc1ccco1)C(=O)[C@@H](CC(=O)O)NC(=O)[C@@H](Cc1ccc(O)cc1)NC(=O)[C@H](N)CCCCN [Spot H9] (H-[dK][dY][dD][NAllylGly][dE][dL][NFurfurylGly]-{hSer(lactone)}; C-terminus assumed),4 nM
8,C=CCN(CC(=O)N(CC(=O)N[C@H]1CCOC1=O)Cc1ccco1)C(=O)[C@@H](CC(=O)O)NC(=O)CNC(=O)CN(Cc1ccc2c(c1)OCO2)C(=O)[C@@H](Cc1ccc(O)cc1)NC(=O)[C@H](N)CCCCN [Spot E4] (H-[dK][dY][Gly(N-piperonyl)]G[dD][NAllylGly][NFurfurylGly]-{hSer(lactone)}),8 nM

# The next lines start with the values.
row,Kd,Compound
1,7 nM,NCCCC[C@@H](N)C(=O)N[C@H](Cc1ccc(O)cc1)C(=O)N[C@H](Cc1ccc(O)cc1)C(=O)N[C@H](CC(N)=O)C(=O)N[C@H](CC(=O)O)C(=O)N(CC(=O)N(CC(=O)N[C@H]1CCOC1=O)Cc1ccco1)Cc1ccc2c(c1)OCO2 [Spot D5] (H-[dK][dY][dY][dN][dD][Gly(N-piperonyl)][NFurfurylGly]-{hSer(lactone)})
2,7 nM,N=C(N)NCCC[C@@H](NC(=O)[C@@H](Cc1ccc(O)cc1)NC(=O)[C@@H](CCCCN)NC(=O)[C@H](N)CCC(=O)O)C(=O)N[C@H](Cc1ccc(O)cc1)C(=O)N[C@H](Cc1c[nH]c2ccccc12)C(=O)N(CC(=O)N[C@H]1CCOC1=O)Cc1ccco1 [Spot B4] (H-[dE][dK][dY][dR][dY][dW][NFurfurylGly]-{hSer(lactone)}; C-terminus assumed)
3,9 nM,C[C@@H](NC(=O)[C@@H](Cc1ccc(O)cc1)NC(=O)[C@@H](CCCCN)NC(=O)[C@@H](Cc1ccccc1)NC(=O)[C@H](N)CC(=O)O)C(=O)N[C@H](CCC(=O)O)C(=O)N(CC(=O)N[C@H]1CCOC1=O)Cc1ccco1 [Spot E8] (H-[dD][dF][dK][dY][dA][dE][NFurfurylGly]-{hSer(lactone)}; C-terminus assumed)
4,9 nM,NCCCC[C@@H](NC(=O)[C@H](N)CC(=O)O)C(=O)N[C@H](Cc1ccc(O)cc1)C(=O)N[C@H](Cc1ccccc1)C(=O)N[C@H](CO)C(=O)N(CCc1ccc(S(N)(=O)=O)cc1)CC(=O)N(CC(=O)N[C@H]1CCOC1=O)Cc1ccco1 [Spot B8] (H-[dD][dK][dY][dF][dS][N(4-Sulfamoylphenethyl)Gly][NFurfurylGly]-{hSer(lactone)})
5,5 nM,C[C@@H](NC(=O)[C@@H](Cc1ccc(O)cc1)NC(=O)[C@@H](CCCCN)NC(=O)[C@H](N)CC(N)=O)C(=O)N[C@H](CC(=O)O)C(=O)N[C@H](CC(=O)O)C(=O)N(CC(=O)N[C@H]1CCOC1=O)Cc1ccco1 [Spot A7] (H-[dN][dK][dY][dA][dD][dD][NFurfurylGly]-{hSer(lactone)}; C-terminus assumed)
6,2 nM,NCCCC[C@@H](NC(=O)[C@@H](CC(=O)O)NC(=O)[C@H](N)Cc1c[nH]c2ccccc12)C(=O)N[C@H](Cc1ccc(O)cc1)C(=O)N[C@H](Cc1c[nH]cn1)C(=O)N(CCc1ccc(S(N)(=O)=O)cc1)CC(=O)N(CC(=O)N[C@H]1CCOC1=O)Cc1ccco1 [Spot H8] (H-[dW][dD][dK][dY][dH][N(4-Sulfamoylphenethyl)Gly][NFurfurylGly]-{hSer(lactone)})
7,3 nM,C=CCNCC(=O)N[C@@H](C(=O)N[C@H](CCCCN)C(=O)N[C@H](Cc1ccc(O)cc1)C(=O)N[C@H](CC(=O)O)C(=O)N[C@H](CC(=O)O)C(=O)N(CC(=O)N[C@H]1CCOC1=O)Cc1ccco1)[C@H](C)O [Spot B1] (H-[NAllylGly][dT][dK][dY][dD][dD][NFurfurylGly]-{hSer(lactone)})

# Same assay, conditions: microarray, fluorescently labeled secondary antibody
row,binding of anti-FLAG antibody to spotted compound,Compound
1,binds,N-Asp-Tyr-Lys-Asp-Asp-Asp-Asp-Lys-C [FLAG peptide]

# System: anti-FLAG antibody
# Experiment: Competition experiment: anti-FLAG antibody pre-incubated with excess soluble peptide before hybridization to the array
# Format: binding, mouse
# Details: antibody first incubated with excess peptide
# Protocol: To address if the higher affinity hits bind to anti-FLAG antibody in the antigen-binding site, the inventors carried out a competition experiment in which the anti-FLAG antibody was first incubated with an excess of FLAG peptide or, as a control, the Myc peptide, before hybridization to the array.
row,effect of excess soluble peptide on binding of anti-FLAG antibody to the molecules on the microarray,Compound
1,abrogated binding,N-Asp-Tyr-Lys-Asp-Asp-Asp-Asp-Lys-C [FLAG peptide]

# System: anti-Myc antibody
# Experiment: Microarray hybridization of spotted compounds with anti-Myc antibody
# Format: binding
# Details: fluorescently labeled secondary antibody
# Protocol: as §1
# Microarray Spotting, Hybridization, and Data Analysis. […]
# Dry slides were placed inside the Whatman Fast Frame following the provided instructions, and each of the 16 wells per slide was blocked with 100 μl of StartingBlock (Fisher) for 1 hr at RT with a multichannel pipetteman. […] Gal files were created and used to determine fluorescence intensity of each of the spots with GenePixPro6.0. […] GPR files were created and median fluorescence-background fluorescence values for each of the spots were cut and pasted in Excel and arranged (using simple macros) to simplify transferring results to GraphPad Prism 5.0 software for binding curve analyses.
row,binding of anti-Myc antibody to spotted compound,Compound
1,No binding,N-Asp-Tyr-Lys-Asp-Asp-Asp-Asp-Lys-C [FLAG peptide]
